Test results: patent US11377441B2, “Covalent inhibitors of KRAS” (Araxes Pharma LLC, priority 2017, dated 2022)

The compounds below were run against T1, KRAS G12C 1-169, his-tagged protein, GDP-loaded (Homo sapiens, UniProt P01116, G12C) (assay: Biochemical assay: covalent modification of KRAS G12C measured by mass spectrometry (RapidFire/TOF or Q-Exactive)). Conditions: covalent binding to (modification of) KRAS G12C after a ten minute incubation period.
T1 construct: KRAS G12C 1-169, his-tagged protein, GDP-loaded
Assay type: binding
Outline: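 GDP-loaded KRAS G12C 1-169 (his-tagged) at 2 μM or 0.5 μM in 20 mM Hepes, 150 mM NaCl, 1 mM MgCl2, incubated with compound at 100, 30 or 10 μM at room temperature for 10 min, 30 min, 2 h or 24 h, then quenched with formic acid. Intact-protein LC-MS, deconvolved; percent modification from modified versus unmodified protein.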

Structure (SMILES) | Binding %
C=CC(=O)N1C[C@H](C)N(c2nc(OC[C@@H]3CN(C)CCO3)nc3c(F)c(-c4c(C)ccc5cnn(C)c45)c(Cl)cc23)C[C@H]1C [Compound 176, 1-((2R,5S)-4-(6-chloro-7-(1,6-dimethyl-1H-indazol-7-yl)-8-fluoro-2-(((S)-4-methylmorpholin-2-yl)methoxy)quinazolin-4-yl)-2,5-dimethylpiperazin-1-yl)prop-2-en-1-one] | +++ (+++ indicates binding activity greater than 80%)
C=CC(=O)N1C[C@H](C)N(c2nc(OC[C@@H]3CCN(C)C3)nc3c(F)c(-c4c(C)ccc5[nH]nc(C6CC6)c45)c(Cl)cc23)C[C@H]1C [Compound 177, 1-((2R,5S)-4-(6-chloro-7-(3-cyclopropyl-5-methyl-1H-indazol-4-yl)-8-fluoro-2-(((R)-1-methylpyrrolidin-3-yl)methoxy)quinazolin-4-yl)-2,5-dimethylpiperazin-1-yl)prop-2-en-1-one] | +++ (+++ indicates binding activity greater than 80%)
C=CC(=O)N1C[C@H](C)N(c2nc(OC[C@H]3COCCN3C)nc3c(F)c(-c4c(C)ccc5cnn(C)c45)c(Cl)cc23)C[C@H]1C [Compound 178, 1-((2R,5S)-4-(6-chloro-7-(1,6-dimethyl-1H-indazol-7-yl)-8-fluoro-2-(((R)-4-methylmorpholin-3-yl)methoxy)quinazolin-4-yl)-2,5-dimethylpiperazin-1-yl)prop-2-en-1-one] | ++ (++ indicates binding activity from 50 to 80%)
C=CC(=O)N1C[C@H](C)N(c2nc(OC[C@H]3CCCN3C)nc3c(F)c(-c4c(C)ccc5[nH]nc(C)c45)c(Cl)cc23)C[C@H]1C [Compound 179, 1-((2R,5S)-4-(6-chloro-7-(3,5-dimethyl-1H-indazol-4-yl)-8-fluoro-2-(((R)-1-methylpyrrolidin-2-yl)methoxy)quinazolin-4-yl)-2,5-dimethyllpiperazin-1-yl)prop-2-en-1-one] | +++ (+++ indicates binding activity greater than 80%)
C=CC(=O)N1C[C@H](C)N(c2nc(OC[C@H]3COCCN3C)nc3c(F)c(-c4c(C)ccc5[nH]nc(C6CC6)c45)c(Cl)cc23)C[C@H]1C [Compound 180, 1-((2R,5S)-4-(6-chloro-7-(3-cyclopropyl-5-methyl-1H-indazol-4-yl)-8-fluoro-2-(((R)-4-methymorpholin-3-yl)methoxy)quinazolin-4-yl)-2,5-dimethylpiperazin-1-yl)prop-2-en-1-one] | ++ (++ indicates binding activity from 50 to 80%)
C=CC(=O)N1C[C@H](C)N(c2nc(OC[C@H]3COCCN3C)nc3c(F)c(-c4c(C)ccc5[nH]nc(C)c45)c(Cl)cc23)C[C@H]1C [Compound 181, 1-((2R,5S)-4-(6-chloro-7-(3,5-dimethyl-1H-indazol-4-yl)-8-fluoro-2-(((R)-4-methylmorpholin-3-yl)methoxy)quinazolin-4-yl)-2,5-dimethylpiperazin-1-yl)prop-2-en-1-one] | + (+ indicates binding activity greater than 0% and up to 50%)
C=CC(=O)N1C[C@H](C)N(c2nc(OC[C@@H]3COCCN3C)nc3c(F)c(-c4c(C)ccc5cnn(C)c45)c(Cl)cc23)C[C@H]1C [Compound 182, 1-((2R,5S)-4-(6-chloro-7-(1,6-dimethyl-1H-indazol-7-yl)-8-fluoro-2-(((S)-4-methylmorpholin-3-yl)methoxy)quinazolin-4-yl)-2,5-dimethylpiperazin-1-yl)prop-2-en-1-one] | ++ (++ indicates binding activity from 50 to 80%)
C=CC(=O)N1C[C@H](C)N(c2nc(OC[C@@H]3COCCN3C)nc3c(F)c(-c4c(C)ccc5[nH]nc(C6CC6)c45)c(Cl)cc23)C[C@H]1C [Compound 183, 1-((2R,5S)-4-(6-chloro-7-(3-cyclopropyl-5-methyl-1H-indazol-4-yl)-8-fluoro-2-(((S)-4-methylmorpholin-3-yl)methoxy)quinazolin-4-yl)-2,5-dimethylpiperazin-1-yl)prop-2-en-1-one] | +++ (+++ indicates binding activity greater than 80%)
C=CC(=O)N1C[C@H](C)N(c2nc(OC[C@@H]3COCCN3C)nc3c(F)c(-c4c(C)ccc5[nH]nc(C)c45)c(Cl)cc23)C[C@H]1C [Compound 184, 1-((2R,5S)-4-(6-chloro-7-(3,5-dimethyl-1H-indazol-4-yl)-8-fluoro-2-(((S)-4-methylmorpholin-3-yl)methoxy)quinazolin-4-yl)-2,5-dimethylpiperazin-1-yl)prop-2-en-1-one] | +++ (+++ indicates binding activity greater than 80%)
C=CC(=O)N1C[C@H](C)N(c2nc(OC[C@@H]3CCCN3C)nc3c(F)c(-c4c(C)ccc5[nH]nc(C)c45)c(Cl)cc23)C[C@H]1C [Compound 185, 1-((2R,5S)-4-(6-chloro-7-(3,5-dimethyl-1H-indazol-4-yl)-8-fluoro-2-(((S)-1-methylpyrrolidin-2-yl)methoxy)quinazolin-4-yl)-2,5-dimethylpiperazin-1-yl)prop-2-en-1-one] | +++ (+++ indicates binding activity greater than 80%)
C=CC(=O)N1C[C@H](C)N(c2nc(OC[C@H]3CN(C)CCO3)nc3c(F)c(-c4c(C)ccc5cnn(C)c45)c(Cl)cc23)C[C@H]1C [Compound 186, 1-((2R,5S)-4-(6-chloro-7-(1,6-dimethyl-1H-indazol-7-yl)-8-fluoro-2-(((R)-4-methylmorpholin-2-yl)methoxy)quinazolin-4-yl)-2,5-dimethylpiperazin-1-yl)prop-2-en-1-one] | +++ (+++ indicates binding activity greater than 80%)
C=CC(=O)N1C[C@H](C)N(c2nc(OC[C@@H]3CN(C)CCO3)nc3c(F)c(-c4c(C)ccc5[nH]nc(C6CC6)c45)c(Cl)cc23)C[C@H]1C [Compound 187, 1-((2R,5S)-4-(6-chloro-7-(3-cyclopropyl-5-methyl-1H-indazol-4-yl)-8-fluoro-2-(((S)-4-methylmorpholin-2-yl)methoxy)quinazolin-4-yl)-2,5-dimethylpiperazin-1-yl)prop-2-en-1-one] | +++ (+++ indicates binding activity greater than 80%)
C=CC(=O)N1C[C@H](C)N(c2nc(OC[C@@H]3CN(C)CCO3)nc3c(F)c(-c4c(C)ccc5[nH]nc(C)c45)c(Cl)cc23)C[C@H]1C [Compound 188, 1-((2R,5S)-4-(6-chloro-7-(3,5-dimethyl-1H-indazol-4-yl)-8-fluoro-2-(((S)-4-methylmorpholin-2-yl)methoxy)quinazolin-4-yl)-2,5-dimethylpiperazin-1-yl)prop-2-en-1-one] | +++ (+++ indicates binding activity greater than 80%)
C=CC(=O)N1C[C@H](C)N(c2nc(OC[C@H]3CN(C)CCO3)nc3c(F)c(-c4c(C)ccc5[nH]nc(C6CC6)c45)c(Cl)cc23)C[C@H]1C [Compound 189, 1-((2R,5S)-4-(6-chloro-7-(3-cyclopropyl-5-methyl-1H-indazol-4-yl)-8-fluoro-2-(((R)-4-methylmorpholiln-2-yl)methoxy)quinazolin-4-yl)-2,5-dimethylpiperazin-1-yl)prop-2-en-1-one] | +++ (+++ indicates binding activity greater than 80%)
C=CC(=O)N1C[C@H](C)N(c2nc(OC[C@H]3CN(C)CCO3)nc3c(F)c(-c4c(C)ccc5[nH]nc(C)c45)c(Cl)cc23)C[C@H]1C [Compound 190, 1-((2R,5S)-4-(6-chloro-7-(3,5-dimethyl-1H-indazol-4-yl)-8-fluoro-2-(((R)-4-methylmorpholin-2-yl)methoxy)quinazolin-4-yl)-2,5-dimethylpiperazin-1-yl)prop-2-en-1-one] | +++ (+++ indicates binding activity greater than 80%)
C=CS(=O)(=O)N1C[C@H](C)N(c2nc(N3CC(N(C)C)C3)nc3c(F)c(-c4c(C)ccc5cnn(C)c45)c(Cl)cc23)C[C@H]1C [Compound 191, 1-(6-chloro-7-(1,6-dimethyl-1H-indazol-7-yl)-4-((2S,5R)-2,5-dimethyl-4-(vinylsulfonyl)piperazin-1-yl)-8-fluoroquinazolin-2-yl)-N,N-dimethylazetidin-3-amine] | + (+ indicates binding activity greater than 0% and up to 50%)
C=CC(=O)N1C[C@H](C)N(c2nc(N3CC(N(C)C)C3)nc3c(F)c(-c4c(C)ccc5[nH]nc(C)c45)c(C(F)(F)F)cc23)C[C@H]1C [Compound 192, 1-((2R,5S)-4-(7-(3,5-dimethyl-1H-indazol-4-yl)-2-(3-(dimethylamino)azetidin-1-yl)-8-fluoro-6-(trifluoromethyl)quina-zolin-4-yl)-2,5-dimethylpiperazin-1-yl)prop-2-en-1-one] | +++ (+++ indicates binding activity greater than 80%)
C=CC(=O)N1C[C@H](C)N(c2nc(N3CC(N(C)C)C3)nc3c(F)c(-c4c(C)ccc5[nH]nc(C6CC6)c45)c(C(F)(F)F)cc23)C[C@H]1C [Compound 193, 1-((2R,5S)-4-(7-(3-cyclopropyl-5-methyl-1H-indazol-4-yl)-2-(3-(dimethylamino)azetidin-1-yl)-8-fluoro-6-(trifluoromethyl)quina-zolin-4-yl)-2,5-dimethylpiperazin-1-yl)prop-2-en-1-one] | +++ (+++ indicates binding activity greater than 80%)
C=CS(=O)(=O)N1C[C@H](C)N(c2nc(N3CC(N(C)C)C3)nc3c(F)c(-c4c(C)ccc5[nH]nc(C)c45)c(Cl)cc23)C[C@H]1C [Compound 194, 1-(6-chloro-7-(3,5-dimethyl-1H-indazol-4-yl)-4-((2S,5R)-2,5-dimethyl-4-(vinylsulfonyl)piperazin-1-yl)-8-fluoroquinazolin-2-yl)-N,N-dimethylazetidin-3-amine] | + (+ indicates binding activity greater than 0% and up to 50%)
C=CC(=O)N1C[C@H](C)N(c2nc(N3CC(N(C)C)C3)nc3c(F)c(-c4c(C)ccc5c(Cl)nn(C)c45)c(Cl)cc23)C[C@H]1C [Compound 195, 1-((2R,5S)-4-(6-chloro-7-(3-chloro-1,6-dimethyl-1H-indazol-7-yl)-2-(3-(dimethylamino)azetidin-1-yl)-8-fluoroquinazolin-4-yl)-2,5-dimethylpiperazin-1-yl)prop-2-en-1-one] | + (+ indicates binding activity greater than 0% and up to 50%)
